Test results: PMC8704648 (Pharmaceutics, 2021)

Details: TG, oxidizing atmosphere

Tonset, the onset of the thermal degradation: 249.9 °C
SMILES: COc1ccc2cc([C@H](C)C(=O)O)ccc2c1 [Naproxen, (+)-(S)-2-(6-Methoxynaphthalen-2-yl)propanoic acid]
